Experimental data published in patent US10206937B2, “Boronic acid derivatives and therapeutic uses thereof” (Qpex Biopharma, Inc., priority 2014, dated 2019).

Tested on: strains of Enterobacteriaceae producing various carbapenemases (class A, D and B; 169 strains)
Test: Meropenem or tebipenem potentiation by Compounds 97 or 62 (MIC)
Format: cell-based
Protocol: The largest panel of clinical isolates expressing class A, D and B carbapenemases alone or in combination with other beta-lactamases (169 strains) was used to evaluate carbapenem potentiation activity of Compounds 97 and 62. MIC for meropenem and tebipenem of these strains were determined either alone or in the presence of Compounds 97 or 62, respectively, at a fixed concentration of 8 μg/ml in the growth media.

## C[C@@H](O)[C@H]1C(=O)N2C(C(=O)O)=C(SC3CN(C4=NCCS4)C3)[C@H](C)[C@H]12 [T]
KP1182 Klebsiella pneumoniae SHV-OSBL(2b), NDM-1, OXA-232(c)
  Tebipenem MIC alone (T): Z (MIC of greater than 10 μg/mL)
KP1183 Klebsiella pneumoniae SHV-OSBL(2b), TEM-OSBL(2b), CTX-M-15, NDM-1
  Tebipenem MIC alone (T): Z (MIC of greater than 10 μg/mL)
KP1184 Klebsiella pneumoniae SHV-OSBL(2b), IMP-1
  Tebipenem MIC alone (T): Y (MIC of 1 μg/mL to 10 μg/mL)
KP1185 Klebsiella pneumoniae SHV-OSBL(2b), TEM-OSBL(2b), IMP-4
  Tebipenem MIC alone (T): Z (MIC of greater than 10 μg/mL)
KP1186 Klebsiella pneumoniae CTX-M-15, NDM-1
  Tebipenem MIC alone (T): Z (MIC of greater than 10 μg/mL)
KP1187 Klebsiella pneumoniae SHV-55(2be), TEM-OSBL(2b), CTX-M-15, NDM-1
  Tebipenem MIC alone (T): Z (MIC of greater than 10 μg/mL)
KP1188 Klebsiella pneumoniae SHV-OSBL(2b), CTX-M-15, NDM-1
  Tebipenem MIC alone (T): Z (MIC of greater than 10 μg/mL)
KP1189 Klebsiella pneumoniae TEM-OSBL(2b), CTX-M-15, CTX-M-27, NDM-1
  Tebipenem MIC alone (T): Z (MIC of greater than 10 μg/mL)
KP1190 Klebsiella pneumoniae KPC-4 VIM-4 TEM SHV
  Tebipenem MIC alone (T): Z (MIC of greater than 10 μg/mL)
KP1191 Klebsiella pneumoniae KPC-2
  Tebipenem MIC alone (T): Z (MIC of greater than 10 μg/mL)
KP1192 Klebsiella pneumoniae KPC-2 TEM SHV
  Tebipenem MIC alone (T): Z (MIC of greater than 10 μg/mL)
KP1193 Klebsiella pneumoniae KPC-3 TEM SHV
  Tebipenem MIC alone (T): Z (MIC of greater than 10 μg/mL)
KP1194 Klebsiella pneumoniae KPC TEM SHV
  Tebipenem MIC alone (T): Z (MIC of greater than 10 μg/mL)
KP1195 Klebsiella pneumoniae KPC TEM CTX-M-15
  Tebipenem MIC alone (T): Z (MIC of greater than 10 μg/mL)
KP1196 Klebsiella pneumoniae KPC TEM SHV CTX-M-15 CMY
  Tebipenem MIC alone (T): Z (MIC of greater than 10 μg/mL)
KP1197 Klebsiella pneumoniae KPC-3, VIM-1 TEM SHV
  Tebipenem MIC alone (T): Z (MIC of greater than 10 μg/mL)
KP1198 Klebsiella pneumoniae KPC-3, VIM-1 TEM SHV
  Tebipenem MIC alone (T): Z (MIC of greater than 10 μg/mL)
KP1199 Klebsiella pneumoniae KPC-3 TEM SHV
  Tebipenem MIC alone (T): Z (MIC of greater than 10 μg/mL)
KP1200 Klebsiella pneumoniae KPC-3 TEM SHV
  Tebipenem MIC alone (T): Z (MIC of greater than 10 μg/mL)
KP1210 Klebsiella pneumoniae KPC SHV TEM
  Tebipenem MIC alone (T): Z (MIC of greater than 10 μg/mL)
KP1211 Klebsiella pneumoniae KPC SHV TEM CTX-M-15
  Tebipenem MIC alone (T): Z (MIC of greater than 10 μg/mL)
KP1212 Klebsiella pneumoniae KPC SHV TEM CTX-M-15
  Tebipenem MIC alone (T): Z (MIC of greater than 10 μg/mL)
KP1213 Klebsiella pneumoniae KPC SHV TEM CTX-M-15
  Tebipenem MIC alone (T): Z (MIC of greater than 10 μg/mL)
KP1214 Klebsiella pneumoniae KPC SHV TEM + 1.9 kb
  Tebipenem MIC alone (T): Z (MIC of greater than 10 μg/mL)
KP1215 Klebsiella pneumoniae KPC SHV
  Tebipenem MIC alone (T): Z (MIC of greater than 10 μg/mL)
KP1216 Klebsiella pneumoniae KPC SHV TEM + 1.9 kb
  Tebipenem MIC alone (T): Z (MIC of greater than 10 μg/mL)
KP1217 Klebsiella pneumoniae KPC SHV TEM + 1.9 kb
  Tebipenem MIC alone (T): Z (MIC of greater than 10 μg/mL)
KP1218 Klebsiella pneumoniae KPC SHV TEM + 1.9 kb
  Tebipenem MIC alone (T): Z (MIC of greater than 10 μg/mL)
KP1219 Klebsiella pneumoniae KPC SHV TEM + 1.9 kb
  Tebipenem MIC alone (T): Z (MIC of greater than 10 μg/mL)
KP1220 Klebsiella pneumoniae KPC SHV TEM + 1.9 kb
  Tebipenem MIC alone (T): Z (MIC of greater than 10 μg/mL)
KP1221 Klebsiella pneumoniae KPC SHV TEM + 1.9 kb
  Tebipenem MIC alone (T): Z (MIC of greater than 10 μg/mL)
KP1222 Klebsiella pneumoniae KPC SHV TEM IMP
  Tebipenem MIC alone (T): Z (MIC of greater than 10 μg/mL)
KP1223 Klebsiella pneumoniae KPC SHV TEM
  Tebipenem MIC alone (T): Z (MIC of greater than 10 μg/mL)
KP1224 Klebsiella pneumoniae KPC SHV TEM
  Tebipenem MIC alone (T): Z (MIC of greater than 10 μg/mL)
KP1225 Klebsiella pneumoniae KPC SHV TEM + 1.9 kb CMY
  Tebipenem MIC alone (T): Z (MIC of greater than 10 μg/mL)
KP1226 Klebsiella pneumoniae KPC SHV TEM + 1.9 kb
  Tebipenem MIC alone (T): Z (MIC of greater than 10 μg/mL)
KP1227 Klebsiella pneumoniae KPC SHV TEM CTX-M-15
  Tebipenem MIC alone (T): Z (MIC of greater than 10 μg/mL)
KP1228 Klebsiella pneumoniae OXA-48 TEM SHV CTX-M-15
  Tebipenem MIC alone (T): Y (MIC of 1 μg/mL to 10 μg/mL)
KP1229 Klebsiella pneumoniae OXA-48 TEM SHV CTX-M-15
  Tebipenem MIC alone (T): Z (MIC of greater than 10 μg/mL)
KP1230 Klebsiella pneumoniae OXA-48 TEM SHV CTX-M-15
  Tebipenem MIC alone (T): Y (MIC of 1 μg/mL to 10 μg/mL)
KP1231 Klebsiella pneumoniae OXA-48 TEM SHV CTX-M-15
  Tebipenem MIC alone (T): Y (MIC of 1 μg/mL to 10 μg/mL)
KP1232 Klebsiella pneumoniae OXA-48 TEM SHV CTX-M-15
  Tebipenem MIC alone (T): Z (MIC of greater than 10 μg/mL)
KP1234 Klebsiella pneumoniae OXA-48 TEM SHV CTX-M-15
  Tebipenem MIC alone (T): Z (MIC of greater than 10 μg/mL)
KP1236 Klebsiella pneumoniae OXA-48 TEM SHV CTX-M-15
  Tebipenem MIC alone (T): Z (MIC of greater than 10 μg/mL)
PM1024 Proteus mirabilis TEM-1(2b), CMY-16, VIM-1
  Tebipenem MIC alone (T): Z (MIC of greater than 10 μg/mL)
PM1025 Proteus mirabilis SHV-5(2be), TEM-OSBL(2b), VEB-2, VIM-1
  Tebipenem MIC alone (T): Y (MIC of 1 μg/mL to 10 μg/mL)
PM1026 Proteus mirabilis DHA-1, IMP-26
  Tebipenem MIC alone (T): Y (MIC of 1 μg/mL to 10 μg/mL)
PM1027 Proteus mirabilis VIM-5
  Tebipenem MIC alone (T): Z (MIC of greater than 10 μg/mL)
SM1023 Serratia marcescens VIM-4
  Tebipenem MIC alone (T): Z (MIC of greater than 10 μg/mL)
SM1024 Serratia marcescens TEM-1(2b), IMP-47
  Tebipenem MIC alone (T): Y (MIC of 1 μg/mL to 10 μg/mL)
